Assay: molar heat capacity at saturation pressure
Settings: Liquid, Large sample (1 g) DSC

CCOC(C)(C)C [2-ethoxy-2-methylpropane]
Settings | molar heat capacity [J/K/mol]
277.14 K | 211.4
281.17 K | 213.3
283.15 K | 214.2
285.16 K | 215.2
287.15 K | 216
289.16 K | 216.9
291.14 K | 217.7
293.14 K | 218.5
295.15 K | 219.3
297.14 K | 220.1
299.15 K | 220.9
301.14 K | 221.7
303.16 K | 222.6
305.14 K | 223.3
307.15 K | 224.2
309.14 K | 225.3
311.15 K | 225.9
313.14 K | 226.7
315.16 K | 227.6
317.14 K | 228.6
319.15 K | 229.5
321.14 K | 230.1
323.15 K | 231
325.14 K | 231.7
327.16 K | 232.6
329.15 K | 233.3
331.16 K | 234.2
333.15 K | 235.1
335.16 K | 235.9
338.16 K | 237.1
339.14 K | 237.4
341.15 K | 238.1

CCC(C)(C)OC [2-methoxy-2-methylbutane]
Settings | molar heat capacity [J/K/mol]
279.16 K | 206.8
281.15 K | 207.7
283.16 K | 208.5
285.16 K | 209.3
287.16 K | 210.2
289.16 K | 211
291.17 K | 211.7
293.15 K | 212.5
295.15 K | 213.5
297.16 K | 214.5
299.16 K | 215.3
301.14 K | 216.1
303.14 K | 216.9
305.15 K | 217.8
307.15 K | 218.3
309.15 K | 219.1
311.16 K | 220.1
313.16 K | 220.6
315.13 K | 221.3
317.13 K | 222.1
319.14 K | 222.8
321.14 K | 223.5
323.14 K | 224.5
325.15 K | 225
327.16 K | 225.7
329.16 K | 226.7
331.17 K | 227.4
333.13 K | 228.1
335.14 K | 228.9
337.14 K | 229.7
339.15 K | 230.4
341.16 K | 231
343.17 K | 231.9
345.14 K | 232.6
347.14 K | 233.5
349.15 K | 234.3
351.15 K | 234.9
353.16 K | 235.7
355.14 K | 236.4

CC(C)OC(C)C [diisopropyl ether]
Settings | molar heat capacity [J/K/mol]
277.17 K | 207.7
279.16 K | 208.5
281.15 K | 209.4
283.14 K | 210.4
285.16 K | 211.3
287.16 K | 212.2
289.15 K | 213.1
291.17 K | 214
293.15 K | 214.8
295.16 K | 215.5
297.16 K | 216.3
299.16 K | 217.2
301.16 K | 218
303.15 K | 218.7
305.14 K | 219.5
307.14 K | 220.3
309.16 K | 221
311.15 K | 222
313.15 K | 222.7
315.15 K | 223.6
317.17 K | 224.4
319.16 K | 225.1
321.15 K | 225.9
323.14 K | 226.7
325.14 K | 227.4
327.13 K | 228.3
329.16 K | 229
331.15 K | 229.9
333.15 K | 230.5
335.14 K | 231.4
337.14 K | 232.2

COC(C)(C)C [2-methoxy-2-methylpropane]
Settings | molar heat capacity [J/K/mol]
277.15 K | 180.9
279.15 K | 181.4
281.16 K | 182.3
283.15 K | 183.1
285.15 K | 183.8
287.14 K | 184.4
289.16 K | 185.3
291.15 K | 186
293.16 K | 186.8
295.15 K | 187.7
297.14 K | 188.3
299.14 K | 189
301.16 K | 189.7
303.16 K | 190.4
305.15 K | 191.1
307.15 K | 191.8
309.16 K | 192.6
311.16 K | 193.2
313.15 K | 193.9
315.15 K | 194.6
317.14 K | 195.2
319.16 K | 196
321.15 K | 196.5
323.15 K | 197.3
325.15 K | 198

Source: the NIST ThermoML archive (doi:10.1021/je0340699)
